# According to PubChem BioAssay AID330 (DTP/NCI, 2004):
# Where “and” joins values, the source holds several entries; their conditions need not be identical. Equal values may be shown once. Toxic doses and inconclusive results are not listed.
# System: P388 leukemia ip, CD2F1 mice, survival T/C
# Assay: NCI In Vivo Anticancer Drug Screen. Data for tumor model P388 Leukemia (intraperitoneal) in CD2F1 (CDF1) mice
# Conditions: endpoint: median survival time, higher = longer survival
# Method in brief: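 Mice carrying the transplanted tumor received test compound or vehicle. Survival was recorded in each group, and the value is the treated-group measurement divided by that of the vehicle-treated control group.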
# [1] = dose: 12.5 mg/kg/injection, schedule: Q01DX009 (ip), vehicle: saline with Tween-80
# [2] = dose: 25.0 mg/kg/injection, schedule: Q01DX009 (ip), vehicle: saline with Tween-80
# [3] = dose: 50.0 mg/kg/injection, schedule: Q01DX009 (ip), vehicle: saline with Tween-80
# [4] = dose: 100.0 mg/kg/injection, schedule: Q01DX009 (ip), vehicle: saline with Tween-80
# [5] = dose: 50.0 mg/kg/injection, schedule: Q01DX005 (ip), vehicle: Klucel (hydroxypropylcellulose) (HPC)
# [6] = dose: 100.0 mg/kg/injection, schedule: Q01DX005 (ip), vehicle: Klucel (hydroxypropylcellulose) (HPC)
# [7] = dose: 200.0 mg/kg/injection, schedule: Q01DX005 (ip), vehicle: Klucel (hydroxypropylcellulose) (HPC)
# [8] = dose: 60.0 mg/kg/injection, schedule: Q01DX005 (ip), vehicle: saline
# [9] = dose: 120.0 mg/kg/injection, schedule: Q01DX005 (ip), vehicle: saline
# [10] = dose: 240.0 mg/kg/injection, schedule: Q01DX005 (ip), vehicle: saline
# [11] = dose: 200.0 mg/kg/injection, schedule: Q01DX009 (ip), vehicle: saline with Tween-80
# [12] = dose: 50.0 mg/kg/injection, schedule: Q01DX005 (ip), vehicle: saline with Tween-80
# [13] = dose: 100.0 mg/kg/injection, schedule: Q01DX005 (ip), vehicle: saline with Tween-80
# [14] = dose: 200.0 mg/kg/injection, schedule: Q01DX005 (ip), vehicle: saline with Tween-80
# [15] = dose: 50.0 mg/kg/injection, schedule: Q01DX005 (ip), vehicle: saline
# [16] = dose: 100.0 mg/kg/injection, schedule: Q01DX005 (ip), vehicle: saline
# [17] = dose: 50.0 mg/kg/injection, schedule: Q01DX009 (ip), vehicle: saline
# [18] = dose: 50.0 mg/kg/injection, schedule: Q04DX002 (ip), vehicle: saline with Tween-80
# [19] = dose: 100.0 mg/kg/injection, schedule: Q04DX002 (ip), vehicle: saline with Tween-80
structure (smiles),measurement,setting,value
CCS(=O)(=O)CCN1C(=O)CN=C(c2ccccc2F)c2cc(Cl)ccc21,T/C,[1],102 % of control
same,T/C,[2],104 % of control
same,T/C,[3],103 % of control
same,T/C,[4],110 % of control
O=C1CNC(=O)N1CN1CCc2ccccc2C1,T/C,[5],99 % of control
same,T/C,[6],105 % of control
same,T/C,[7],99 % of control
COC1=C(C)C(=O)c2c(C(C)C)cc(O)c(C=O)c2C1=O,T/C,"dose: 3.0 mg/kg/injection, schedule: Q01DX009 (ip), vehicle: Klucel (hydroxypropylcellulose) (HPC)",100 % of control
same,T/C,"dose: 6.0 mg/kg/injection, schedule: Q01DX009 (ip), vehicle: Klucel (hydroxypropylcellulose) (HPC)",100 % of control
same,T/C,"dose: 12.0 mg/kg/injection, schedule: Q01DX009 (ip), vehicle: Klucel (hydroxypropylcellulose) (HPC)",109 % of control
same,T/C,"dose: 24.0 mg/kg/injection, schedule: Q01DX009 (ip), vehicle: Klucel (hydroxypropylcellulose) (HPC)",109 % of control
CCOC(=O)CC1NC(=O)CNC1=O (stereo unspecified),T/C,[8],100 % of control
same,T/C,[9],101 % of control
same,T/C,[10],100 % of control
CCC(=O)n1c(Cl)c(C=O)c2ccccc21,T/C,"dose: 100.0 mg/kg/injection, schedule: Q01DX001 (ip), vehicle: Klucel (hydroxypropylcellulose) (HPC)",99 % of control
same,T/C,"dose: 200.0 mg/kg/injection, schedule: Q01DX001 (ip), vehicle: Klucel (hydroxypropylcellulose) (HPC)",102 % of control
same,T/C,"dose: 400.0 mg/kg/injection, schedule: Q01DX001 (ip), vehicle: Klucel (hydroxypropylcellulose) (HPC)",94 % of control
CC(C)=C(OS(=O)(=O)C(F)(F)F)[Si](C)(C)C,T/C,[3],99 % of control
same,T/C,[4],105 % of control
same,T/C,[11],105 % of control
CC1=CC[C@@H]2C(C#N)C3(CCC12C)OCCO3 (stereo partly specified),T/C,[12],92 % of control
same,T/C,[13],94 % of control
same,T/C,[14],94 % of control
O=C1CN(CCCN2CCOCC2)CC(=O)N2CCCCN12,T/C,[15],100 % of control
same,T/C,[16],105 % of control
same,T/C,"dose: 200.0 mg/kg/injection, schedule: Q01DX005 (ip), vehicle: saline",102 % of control
CCCCN(CCCC)CC(O)c1ccc(OC)c2ccccc12 (stereo unspecified),T/C,[12],102 % of control
same,T/C,[13],107 % of control
same,T/C,[14],98 % of control
COc1cc2c(c3oc(=O)cc(CCC(=O)O)c13)C1CC(=O)OC1O2 (stereo unspecified),T/C,"dose: 8.75 mg/kg/injection, schedule: Q01DX005 (ip), vehicle: Klucel (hydroxypropylcellulose) (HPC)",101 % of control
same,T/C,"dose: 17.5 mg/kg/injection, schedule: Q01DX005 (ip), vehicle: Klucel (hydroxypropylcellulose) (HPC)",100 % of control
same,T/C,"dose: 35.0 mg/kg/injection, schedule: Q01DX005 (ip), vehicle: Klucel (hydroxypropylcellulose) (HPC)",97 % of control
O=C(NC(=O)c1cccc2ccccc12)NC(=S)c1cccc2ccccc12,T/C,"dose: 100.0 mg/kg/injection, schedule: Q01DX001 (ip), vehicle: saline",103 % of control and 96 % of control
same,T/C,"dose: 200.0 mg/kg/injection, schedule: Q01DX001 (ip), vehicle: saline",109 % of control and 95 % of control
same,T/C,"dose: 400.0 mg/kg/injection, schedule: Q01DX001 (ip), vehicle: saline",101 % of control and 87 % of control
COc1ccc(SC(N(C)C)=[N+](C)C)cc1,T/C,"dose: 15.0 mg/kg/injection, schedule: Q01DX005 (ip), vehicle: saline",100 % of control
same,T/C,"dose: 30.0 mg/kg/injection, schedule: Q01DX005 (ip), vehicle: saline",100 % of control
same,T/C,[8],102 % of control and 121 % of control
CC(C)(C)N=C(CCN1CCN(c2ccccc2)CC1)Nc1c(Cl)cccc1Cl,T/C,"dose: 12.5 mg/kg/injection, schedule: Q01DX009 (ip), vehicle: saline",91 % of control
same,T/C,"dose: 25.0 mg/kg/injection, schedule: Q01DX009 (ip), vehicle: saline",97 % of control
same,T/C,[3],94 % of control
same,T/C,[17],100 % of control
same,T/C,[4],96 % of control
CC(C)C(Nc1ncnc2c1CCc1ccccc1-2)C(=O)O (stereo unspecified),T/C,[18],95 % of control
same,T/C,[19],100 % of control
COc1ccc2c(=O)c(Cc3c[nH]c4ccccc34)coc2c1,T/C,"dose: 7.5 mg/kg/injection, schedule: Q01DX005 (ip), vehicle: saline with Tween-80",100 % of control
same,T/C,"dose: 15.0 mg/kg/injection, schedule: Q01DX005 (ip), vehicle: saline with Tween-80",93 % of control
same,T/C,"dose: 30.0 mg/kg/injection, schedule: Q01DX005 (ip), vehicle: saline with Tween-80",86 % of control
CCCCCCCC(=O)Nc1ncc([N+](=O)[O-])s1,T/C,"dose: 50.0 mg/kg/injection, schedule: Q01DX009 (ip), vehicle: Klucel (hydroxypropylcellulose) (HPC)",106 % of control
same,T/C,"dose: 100.0 mg/kg/injection, schedule: Q01DX009 (ip), vehicle: Klucel (hydroxypropylcellulose) (HPC)",106 % of control
same,T/C,"dose: 200.0 mg/kg/injection, schedule: Q01DX009 (ip), vehicle: Klucel (hydroxypropylcellulose) (HPC)",113 % of control
CCOC1N(c2ccccc2)CN(C2CCCCC2)CC1(C)C (stereo unspecified),T/C,"dose: 6.25 mg/kg/injection, schedule: Q01DX009 (ip), vehicle: saline with Tween-80",100 % of control
same,T/C,[1],98 % of control
same,T/C,[2],102 % of control
C=CCSc1nc2ccc(N=Cc3ccc([N+](=O)[O-])cc3)cc2s1,T/C,"dose: 6.25 mg/kg/injection, schedule: Q01DX009 (ip), vehicle: Klucel (hydroxypropylcellulose) (HPC)",99 % of control
same,T/C,"dose: 12.5 mg/kg/injection, schedule: Q01DX009 (ip), vehicle: Klucel (hydroxypropylcellulose) (HPC)",98 % of control
same,T/C,"dose: 25.0 mg/kg/injection, schedule: Q01DX009 (ip), vehicle: Klucel (hydroxypropylcellulose) (HPC)",105 % of control
O=c1[nH]n(CCc2ccccn2)c(=O)c(Cl)c1Cl,T/C,[12],96 % of control
same,T/C,[13],100 % of control
same,T/C,[14],92 % of control
O=C1/C(=C(\Cl)c2ccccc2)Cc2ccccc21,T/C,"dose: 75.0 mg/kg/injection, schedule: Q01DX001 (ip), vehicle: saline sonified",100 % of control
same,T/C,"dose: 150.0 mg/kg/injection, schedule: Q01DX001 (ip), vehicle: saline sonified",95 % of control
same,T/C,"dose: 300.0 mg/kg/injection, schedule: Q01DX001 (ip), vehicle: saline sonified",118 % of control
OCC1OC(O)C2OCCOCCOC3C(O)C(CO)OC(O)C3OCCOCCOC2C1O (stereo unspecified),T/C,[8],101 % of control
same,T/C,[9],95 % of control
same,T/C,[10],97 % of control
Cc1cc2c(cc1Cl)ncn2C,T/C,[17],96 % of control
same,T/C,"dose: 100.0 mg/kg/injection, schedule: Q01DX009 (ip), vehicle: saline",112 % of control
same,T/C,"dose: 200.0 mg/kg/injection, schedule: Q01DX009 (ip), vehicle: saline",118 % of control
CN=C(N)N/N=C(\C)c1ccc2c(ccc3ccccc32)c1,T/C,"dose: 6.25 mg/kg/injection, schedule: Q04DX002 (ip), vehicle: saline with Tween-80",105 % of control and 108 % of control
same,T/C,"dose: 12.5 mg/kg/injection, schedule: Q04DX002 (ip), vehicle: saline with Tween-80",104 % of control and 107 % of control
same,T/C,"dose: 25.0 mg/kg/injection, schedule: Q04DX002 (ip), vehicle: saline with Tween-80",122 % of control
same,T/C,[18],123 % of control
same,T/C,[19],123 % of control
same,T/C,"dose: 200.0 mg/kg/injection, schedule: Q04DX002 (ip), vehicle: saline with Tween-80",107 % of control
ClCCN(CCCN(CCCl)c1ccccc1)c1ccccc1,T/C,"dose: 200.0 mg/kg/injection, schedule: Q01DX001 (ip), vehicle: saline with Tween-80",164 % of control
same,T/C,"dose: 400.0 mg/kg/injection, schedule: Q01DX001 (ip), vehicle: saline with Tween-80",150 % of control and 157 % of control
same,T/C,"dose: 800.0 mg/kg/injection, schedule: Q01DX001 (ip), vehicle: saline with Tween-80",160 % of control
CSC(=S)NC#N,T/C,[2],111 % of control
same,T/C,[3],100 % of control
same,T/C,[4],107 % of control
same,T/C,[11],108 % of control
c1ccc2nc(N3CCCC3)c(N3CCCCC3)nc2c1,T/C,[5],102 % of control
same,T/C,[6],94 % of control
same,T/C,[7],100 % of control
[N-]=[N+]=NCC(=O)N1c2ccccc2Sc2ccccc21,T/C,"dose: 25.0 mg/kg/injection, schedule: Q01DX009 (ip), vehicle: other",108 % of control
same,T/C,"dose: 50.0 mg/kg/injection, schedule: Q01DX009 (ip), vehicle: other",103 % of control
same,T/C,"dose: 100.0 mg/kg/injection, schedule: Q01DX009 (ip), vehicle: other",95 % of control
same,T/C,"dose: 200.0 mg/kg/injection, schedule: Q01DX009 (ip), vehicle: other",108 % of control
CCC(C)NC1(N(C)C)N=C(N(C)C)N=C(N(C)C)O1 (stereo unspecified),T/C,[15],101 % of control
same,T/C,[16],99 % of control
